Measurements taken from patent US20100267682A1, “CORTICOSTEROIDS TO TREAT EPOTHILONE OR EPOTHILONE DERIVATIVE INDUCED DIARRHEA” (NOVARTIS AG, priority 2007, published 2010).
Read-outs that look alike come from different tables or passages of the source. Marks after values point to notes of the source that are not given here.

Experiments:
[1] = test system: HRPC (hormone-refractory prostate cancer) patients; test: Clinical trial in HRPC patients: patupilone-induced diarrhea; type: in vivo, human; conditions: 10 mg (ca. 5.5 mg/m^2) prednisone per day
Description: HRPC (hormone-refractory prostate cancer) patients in a clinical trial are getting 10 mg (ca. 5.5 mg/m^2) prednisone per day.

[2] = Description: (§1) They are idendified by ear markings and kept in groups of 4 under normal conditions with access to food and water as libitum. Tumors: Rat glioma cells, A15 (aks 1a2r) are obtained from ECACC. […] Tumors are induced by concentrating 5×10^5 cells in 50 μl and injecting s.c. in the flank of the rats. […] Generally experiments begin when the tumors are >150 mm^3. Patupilone: Patupilone is weighed and dissolved in a vehicle of 30% PEG-300 and 70% normal saline to a final concentration of 1 mg/ml. Patupilone is injected i.v. in the tail vein as a bolus of 2-3 seconds at a dose of 1.5 mg/kg once.
Efficacy and Tolerability: Tumor volume (Tvol) is quantified by change in tumor volume (endpoint vs. starting value in mm^3). As the T/CTVol, i.e. [ΔTVOldrug/ΔTVolvehicle]. The body weight of the rats is measured three times per week.
After 10 days the rats are treated on day-0 once with patupilone (PAT) at 1.5 mg/kg i.v. bolus (G2, G4-G7) or PAT-vehicle (G1 & G3). All rats treated with prednisolone (Predn) received the drug p.o. at 7 mg/kg for 5 consecutive days (except G7 for 3 days only) either 1-day before (G4), on the same day (G7), 1-day after patupilone (G6) or 3-days after patupilone (G5). […]

[3] = test system: Rat glioma cells, A15; test: BDix rat tumor model: s.c. A15 glioma tumour response; type: in vivo; conditions: for T/C Day-14: ΔTVol drug/ΔTVol vehicle
Excerpt: As the T/CTVol, i.e. [ΔTVOldrug/ΔTVolvehicle].

[4] = Total PAT exposure (AUC) in blood, tissues and tumor of BDix rats; type: in vivo, rat; conditions: for AUC24-336 hr (total PAT exposure): Example 4, mean ± SD, n = 3, PAT 1.5 mg/kg i.v. day 0, G2 Predn-vehicle or G4 Predn 7 mg/kg p.o. 5 days (D-1)
Description: G4 received prednisolone (Predn) p.o. at 7 mg/kg for 5 consecutive days while G2 received Predn-vehicle only for 5 days.

[5] = test system: BDix rats; test: Patupilone-induced diarrhea scoring in BDix rats (grade 0-3, AUC days 3-7, days > G1); conditions: for Diarrhoea reduction (T/C) >G1D3-D6 / Diarrhoea reduction (T/C) AUCD3-D7: PAT 1.5 mg/kg i.v. D0, vs patupilone alone; for Diarrh: Days > G1: BDix rats with s.c. A15 glioma
Description: as §1, with “once. […] The suspension is sonicated for 30 min to achieve a milky suspension for oral administration (5 mL/kg).” for “once.”
Although prednisolone is administered orally daily, the dose and number of days of treatment are different in each experiment. The doses are 1, 3, 7 or 10 mg/kg which is roughly equivalent to 6, 17, 40 and 60 mg/m^2, respectively. When prednisolone and patupilone treatment are on the same day, prednisolone is administered 2-4 hours after treatment with patupilone.
Diarrhea: Diarrhea is monitored daily from day 3 post injection fo patupilone which is on day 0. Diarrhea is scored as follows:
Grade 1: soft but formed stool
Grade 2: soft unformed stool
Thus, each rat on each day of diarrhea (5 days from day […]) is graded 0-3 which allows a semi-quantitative analysis of the effects of different treatment. Two different abalytical methods are applied using a) area under the curve (AUCdays3-7) calculated using the trapezoidal rule as applied by Graphpad Prism (v. 4.0 for Windows) and b) the numbere of days in which diarrhea is graded >1. It is believed that the second approach is a more realistic comparison to the clinic since as described above G≦1 is not really diarrhea, and in the clinic, the major issue is avoiding severe diarrhea, i.e. clinical grades of ≧2.
After 10 days the rats are treated on day-0 once with patupilone (PAT) at 1.5 mg/kg i.v. bolus (G2, G4-G7) or PAT-vehicle (G1 & G3). All rats treated with prednisolone (Predn) received the drug p.o. at 7 mg/kg for 5 consecutive days (except G7 for 3 days only) either 1-day before (G4), on the same day (G7), 1-day after patupilone (G6) or 3-days after patupilone (G5).
Rats receive 7 mg/kg prednisolone (Predn) or the Predn-vehicle p.o. for 5 consecutive days (except G3 for 3 days) starting either on Day-0 (G1-G3) or after 24 hr (D+1) or 24 hr prior to PAT (D−1).

[6] = Example 3 G3, BDix rats with s.c. A15 glioma, Predn 7 mg/kg p.o. 5 days + PAT vehicle
[7] = Example 3 G3, Predn 7 mg/kg p.o. 5 days + PAT vehicle
[8] = Example 1, Predn 1 mg/kg (6 mg/m^2) p.o. 7-days from D0
[9] = Example 1, Predn 3 mg/kg (17 mg/m^2) p.o. 7-days from D0
[10] = Example 1, Predn 10 mg/kg (60 mg/m^2) p.o. 7-days from D0
[11] = Example 2, Predn 3 mg/kg (17 mg/m^2) p.o. 7-days from D0
[12] = Example 2, Predn 10 mg/kg (60 mg/m^2) p.o. 7-days from DO
[13] = Example 3, Predn 7 mg/kg (40 mg/m^2) p.o. 3-days from D0
[14] = Example 3, Predn 7 mg/kg (40 mg/m^2) p.o. 5-days from D+1
[15] = Example 3, Predn 7 mg/kg (40 mg/m^2) p.o. 5-days from D−1
[16] = Example 3, Predn 7 mg/kg (40 mg/m^2) p.o. 7-days from D+3
[17] = Example 5, Predn 7 mg/kg (40 mg/m^2) p.o. 3-days from D0
[18] = Example 5, Predn 7 mg/kg (40 mg/m^2) p.o. 5-days from D0
[19] = Example 5, Predn 7 mg/kg (40 mg/m^2) p.o. 5-days from D+1
[20] = Example 5, Predn 7 mg/kg (40 mg/m^2) p.o. 5-days from D−1
[21] = Example 1, BDix rats, PAT 1.5 mg/kg i.v. once + Predn vehicle p.o. 7 days
[22] = Example 2, BDix rats with s.c. A15 glioma, PAT 1.5 mg/kg i.v. once + Predn vehicle p.o. 7 days
[23] = Example 3 G2, BDix rats with s.c. A15 glioma, PAT 1.5 mg/kg i.v. day 0 + Predn vehicle
[24] = Example 5 G1, BDix rats, PAT 1.5 mg/kg i.v. Day 0 + Veh-Predn p.o. 5 days (D0)
[25] = Example 3 G2, PAT 1.5 mg/kg i.v. day 0 + Predn vehicle

In the case of `C[C@]12C=CC(=O)C=C1CC[C@@H]1[C@@H]2C(=O)C[C@@]2(C)[C@H]1CC[C@]2(O)C(=O)CO` [prednisone], the “Effect on epothilone B (patupilone)-induced diarrhea” value [1] is reported as “does not seem to have an effect”.
In the case of `C[C@]12C=CC(=O)C=C1CC[C@@H]1[C@@H]2[C@@H](O)C[C@@]2(C)[C@H]1CC[C@]2(O)C(=O)CO` [Predn, prednisolone], the Survival [2, 6] is reported as 8/8, the “ΔTVol Day-14” value [3, 6] is reported as 728 ± 93 and the “T/C Day-14” value [3, 7] is reported as 0.93. For the same compound, the “Effect of prednisolone on patupilone exposure” value ([4]; BDix rats, summary) was “no evidence that prednisolone interferred with significantly with patupilone exposure”, the “Effect on diarrhea caused by an efficacious dose of patupilone” value ([5]; BDix rats, summary of Examples 1-6) was “able to reproducibly reduce diarrhea” and the “Diarrhoea reduction (T/C) >G1D3-D6” value [5, 8] was 0.81. The “Diarrhoea reduction (T/C) AUCD3-D7” value [5, 8] was 0.85, the “Diarrhoea reduction (T/C) >G1D3-D6” value [5, 9] was 0.13 and the “Diarrhoea reduction (T/C) AUCD3-D7” value [5, 9] was 0.30. For the same compound, the “Diarrhoea reduction (T/C) >G1D3-D6” value [5, 10] was 0.06, the “Diarrhoea reduction (T/C) AUCD3-D7” value [5, 10] was 0.20 and the “Diarrhoea reduction (T/C) >G1D3-D6” value [5, 11] was 0. For the same compound, the “Diarrhoea reduction (T/C) AUCD3-D7” value [5, 11] was 0.14, the “Diarrhoea reduction (T/C) >G1D3-D6” value [5, 12] was 0 and the “Diarrhoea reduction (T/C) AUCD3-D7” value [5, 12] was 0.01. For the same compound, the “Diarrhoea reduction (T/C) >G1D3-D6” value [5, 13] was 0.57, the “Diarrhoea reduction (T/C) AUCD3-D7” value [5, 13] was 0.60 and the “Diarrhoea reduction (T/C) >G1D3-D6” value [5, 14] was 0.52. The “Diarrhoea reduction (T/C) AUCD3-D7” value [5, 14] was 0.57, the “Diarrhoea reduction (T/C) >G1D3-D6” value [5, 15] was 0.65 and the “Diarrhoea reduction (T/C) AUCD3-D7” value [5, 15] was 0.61. The “Diarrhoea reduction (T/C) >G1D3-D6” value [5, 16] was 0.57, the “Diarrhoea reduction (T/C) AUCD3-D7” value [5, 16] was 0.75 and the “Diarrh: Days > G1” value [5, 7] was 0 days. For the same compound, the “Diarrhoea reduction (T/C) >G1D3-D6” value [5, 17] was 0.08, the “Diarrhoea reduction (T/C) AUCD3-D7” value [5, 17] was 0.11 and the “Diarrhoea reduction (T/C) >G1D3-D6” value [5, 18] was 0. The “Diarrhoea reduction (T/C) AUCD3-D7” value [5, 18] was 0.03, the “Diarrhoea reduction (T/C) >G1D3-D6” value [5, 19] was 0 and the “Diarrhoea reduction (T/C) AUCD3-D7” value [5, 19] was 0.17. The “Diarrhoea reduction (T/C) >G1D3-D6” value [5, 20] was 0 and the “Diarrhoea reduction (T/C) AUCD3-D7” value [5, 20] was 0.18.
For `C/C(=C\c1csc(C)n1)[C@@H]1C[C@@H]2O[C@]2(C)CCC[C@H](C)[C@H](O)[C@@H](C)C(=O)C(C)(C)[C@@H](O)CC(=O)O1` [PAT, epothilone B], the “BW (g) Day-7” value [2, 21] was 150 ± 3 g, the Survival [2, 21] was 6/6 and the “Δ% BW Day-7” value [2, 21] was −16.3 ± 1.3%. For the same compound, the “ΔBW (g) Day-7” value [2, 21] was -29.5 ± 3.1 g, the “BW (g) Day-6” value [2, 22] was 186 ± 3 g and the Survival [2, 22] was 6/6. For the same compound, the “Δ% BW Day-13” value [2, 22] was −4.1 ± 2.1%, the “BW (g) Day-14” value [2, 23] was 179 ± 4 g and the Survival [2, 23] was 8/8. For the same compound, the “Δ% BW Day-7” value [2, 23] was −18.6 ± 1.3 %, the “Δ% BW Day-14” value [2, 23] was −4.4 ± 1.8 % and the “BW (g) Day-7” value [2, 24] was 163 ± 3 g. For the same compound, the Survival [2, 24] was 8/8, the “Δ% BW Day-7” value [2, 24] was −12.0 ± 1.2% and the “Tumour Wt” value [3, 22] was 0.83 ± 0.17 g. The “ΔTVol Day-14” value [3, 23] was 277 ± 37, the “T/C Day-14” value [3, 25] was 0.35* and the “AUC24-336 hr (total PAT exposure)” value ([4]; Blood) was 1891 ± 344 ng/h/mL. For the same compound, the “AUC24-336 hr (total PAT exposure)” value ([4]; Brain) was 64948 ± 6237 ng/h/mL, the “AUC24-336 hr (total PAT exposure)” value ([4]; Caecum) was 53911 ± 10512 ng/h/mL and the “AUC24-336 hr (total PAT exposure)” value ([4]; Jejunum) was 57045 ± 3988 ng/h/mL. For the same compound, the “AUC24-336 hr (total PAT exposure)” value ([4]; Liver) was 56278 ± 9988 ng/h/mL, the “AUC24-336 hr (total PAT exposure)” value ([4]; Tumor) was 142437 ± 36429 ng/h/mL and the “Diarrhoea: Days > G1” value [5, 21] was 2.7 ± 0.2 days. For the same compound, the “Diarrh: Days > G1” value ([5]; Example 2, PAT 1.5 mg/kg i.v. once + Predn vehicle p.o. 7 days) was 1.7 ± 0.3 days, the “Diarrh: Days > G1” value [5, 25] was 2.9 ± 0.3 days and the “Diarrhoea: Days > G1” value [5, 24] was 1.5 ± 0.3 days.
